Results as given in US20240262844A1, “PYRIDINIUM SALTS AND METHODS OF USE” (UNIVERSITY OF WYOMING, priority 2023, published 2024).
Structures can show the parent of a compound that is named as a salt.

Biological target: T1, β2-Microglobulin (11.7 kDa) (Homo sapiens, UniProt P61769)
T1 construct: β2-microglobulin (Human Urine≥98% (SDS-PAGE)); purchased Lee Biosolutions; host or cells: human urine
Test: Photochemical labeling of β2-microglobulin (LC/MS, MS-MS)
Format: biochemical
Procedure: General Procedure B: Photochemical Irradiation of Peptides and Proteins: To a 2 mL Pyrex LC/MS vial (Thermo model #03-391-39) were sequentially added solutions containing the desired biomolecule, glutathione (GSH), pyridinium salt, and ammonium acetate (NH4OAc). The resulting solution was diluted to a final volume of 500 μL and then sparged using nitrogen for a minimum of 30 minutes prior to irradiation. The actively sparging solution was then placed in an EvoluChem™ PhotoRedOx Box photoreactor that was equipped with a Kessil, PR160 427 nm LED Lamp and was then irradiated (100% lamp intensity) for the designated time at room temperature while maintaining active sparging. The resultant reaction mixture was then analyzed directly by LC/MS. Analysis of labeling outcomes using LC/MS was performed either by extracted ion chromatogram intensities (method A) or by integrating the area under the peaks associated with peptide content (method B). […]
Labeling of β2-Microglobulin with Pyridinium Salt 2a (B2-Microglobulin-2a Conjugate). […] The reaction mixture was directly analyzed by LC/MS using method A and was estimated to have proceeded with 88% conversion with a >20:1 mono:di labeled ratio and 7% glutathionylation of all unlabeled and labeled protein content. β2-Microglobulin-2a conjugate (retention time (Tr)=3.26-4.70 min). […]

T1 sequence (P61769 21-119): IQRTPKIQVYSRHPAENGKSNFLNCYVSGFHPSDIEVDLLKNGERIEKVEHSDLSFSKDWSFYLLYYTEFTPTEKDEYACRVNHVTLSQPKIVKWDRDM

COC(=O)N(C)[n+]1c(C)cc(-c2ccc3cc(OC)ccc3c2)cc1C [Pyridinium salt 2a, 1-((methoxycarbonyl)(methyl)amino)-4-(6-methoxynapthalen-2-yl)-2,6-dimethylpyridin-1-ium tetrafluoroborate]
glutathionylation of all unlabeled and labeled protein content (10 μM β2-microglobulin, 200 μM pyridinium salt, 1 mM glutathione, 30 minutes): 7%
site of tryptophan modification (digestion/MS-MS): Trp-60
